The results in this text go back to patent US20230158068A1 (priority 2020, published 2023).

One data set has as its system co-culture models. The experiment in a line: IL-8 secretion of co-culture models after LPS (ELISA). Type of data set: cell-based, human. The following applies: 100 ng/ml LPS. As for the experimental part: FIG. 36 illustrates extent of immune response using IL-8 secretion. […] IL-8 levels detected from supernatants of co-culture models cultured under LLI/ALI post exposure to 100 ng/ml LPS. The IL-8 levels were quantified using ELISA assay. […] N=4, * indicates (p<0.05).

Data set [1] has as its system T I model (hAELVi + MØ), T II model (A549 + MØ). Kind of data set: LDH release from co-cultures with LPS (cell health). Type of data set: cell-based, human. Particulars: 10 ng/mL LPS, 24 h; both co-culture models. As for the experimental part:
FIGS. 25A and 25B illustrate the comparison of mono-culture and co-culture construction on cell health. Percentage of maximum LDH released into supernatants from cell populations normalised to 0.1% v/v Triton-X 100 positive control. LDH released from co-cultures: (T I) hAELVi and (T II) A549 cells in co-culture with MØ cells were assessed (A). MØ cells cultured with hAELVi cells (T I model) or A549 cells (T II model) were exposed to 10 ng/mL LPS (+LPS) for 24 h (B). A one way ANOVA was used to determine significance for each treatment group and Tukey's multiple comparison post hoc test employed when* p<0.05, p<0.001 Data shown represent n=6 data points±SD of three independent cell model experiments.
On the technique in general: Release of lactate dehydrogenase indicates damage to the cell membrane.

For data set [2], the system named is differentiated U937 cells (MØ). Kind of data set: Phagocytic activity of differentiated U937 cells in mono-culture and co-cultures in the presence of LPS. Particulars: 10 ng/mL LPS, 24 h; both co-culture systems. The class given is cell-based, human. As for the experimental part:
FIG. 23 illustrates a comparison of macrophages in mono-culture and co-cultures phagocytosis of microspheres. Differentiated U937 cells (MØ), MØ cells cultured with hAELVi cells (T I model) or A549 cells (T II model) exposed to 10 ng/mL LPS (+LPS) for 24 h. Phagocytosis assays were performed after 2 h incubation with 1.0 μm FluoSpheres™ Carboxylate-Modified microspheres using fluorescent microscopy. Images at 40× magnification. Scale bar is 100 μm.
FIGS. 24A and 24B illustrate phagocytic activity of differentiated U937 cells (MØ) in mono-culture and co-cultures in the presence of LPS. MØ cells cultured with hAELVi cells (T I model) or A549 cells (T II model) exposed to 10 ng/mL LPS (+LPS) for 24 h. Phagocytosis assays were performed after 2 h incubation with 1.0 μm FluoSpheres™ Carboxylate-Modified microspheres using flow cytometry. Cells were gated for 1000 events (A) per sample. […] Percentage of cells above the gated (R3) threshold (B) of mono and co-cultures. A one way ANOVA was used to determine significance for each treatment group and Tukey's multiple comparison post hoc test employed when* p<0.05, *** : p<0.0001 where n=3 independent models.

In data set [3] the test system is MØ, T I model, T II model. Kind of data set: Human cytokine profile of mono-culture and co-culture models in LPS (array membranes). Type of data set: cell-based. Particulars: LPS 100 ng/mL, 24 h. As for the experimental part:
FIG. 18 illustrates human cytokine profile of lower airway for ALI cell models. Detection of spots on array membranes from supernatant collect from mono-culture and co-cultures of: differentiated U937 cells (MØ) with LPS (MØ+LPS), hAELVi TI cells (T I), A549 TII cells (T II), type I co-culture model: hAELVi and MØ (T I model) with LPS (T I model+LPS), type II co-culture model: A549 and MØ (T II model) with LPS (T II model+LPS). Models were untreated or stimulated with 100 ng/mL LPS for 24 h. Controls are shown as positive (green) and negative (red). Data represents four independent Transwell® inserts. […] The data analysed in more detail in below figures.
FIG. 21 illustrates human cytokine profile of lower airway; T I &T I I models in the presence of LPS. […] Data represents mean signal intensity (AU) of each protein spot from the blot detected using chemiluminescence imaging and quantified using imageJ software for four independent Transwell® inserts±sd. […]
FIG. 22 illustrates human cytokine profile of lower airway of mono-culture and co-culture models in LPS. […] Data analysed by two-way ANOVA with Bonferroni post hoc test of non-stimulated cells vs LPS stimulation. […]

Data set [4] deals with hAELVi and A549 cells in co-culture with MØ cells. Kind of data set: TEER of alveolar epithelial cells in co-culture with LPS. The class given is cell-based, human. The following applies: 10 ng/mL LPS, 24 h. As for the experimental part: FIGS. 26A and 26B illustrate the impact of LPS on barrier properties of alveolar epithelial cells in co-culture. TEER measurements of (T I) hAELVi and (T II) A549 cells in co-culture with MØ cells. MØ cells cultured with hAELVi cells (T I model) or A549 cells (T II model) were exposed to 10 ng/mL LPS (+LPS) for 24 h. A one-way ANOVA was used to determine significance for each treatment group. Data shown represent n=3 of three independent cell model experiments (p>0.05).

For data set [5], the system named is differentiated U937 cells (MØ), T I model, T II model. Kind of data set: CD marker expression in LPS stimulated alveoli models (flow cytometry). The class given is cell-based, human. Particulars: 10 ng/mL LPS, 24 h. As for the experimental part:
FIG. 17 illustrates CD marker expressions in LPS stimulated and non-stimulated alveoli models. Differentiated U937 cells (MØ), MØ cells cultured with hAELVi cells (T I model) or A549 cells (T II model) exposed to 10 ng/mL LPS (+LPS) for 24 h. Direct immunofluorescent staining assays for CD 11 b (A &C) and CD 36 (B & D) surface markers were performed using flow cytometry. A total of 5000 gated events were collected for each sample. MFI (median fluorescent intensity) data shown as mean±sd (n=9) for 3 independent models for Dunnett's post hoc test after one-way ANOVA where *#:p<0.005, *** :p<0.0001 vs MØ and MØ+LPS respectively.
In general terms: A flow cytometer gives signals particle by particle.

For data set [6], the system named is differentiated U937 cells. Kind of data set: Phospholipidosis accumulation in differentiated U937 cells in co-culture set ups (HCS LipidTOX Green). Type of data set: cell-based, human. Particulars: 10 μM amiodarone; differentiated U937 cells in three co-culture set ups.
Method: The phospholipid accumulation was assessed using HCS LipidTOX™ Green phospholipidosis detection reagent. Phospholipidosis accumulation was detected in differentiated U937 cells cultured in LLI in three different co-culture set ups: A) Type I/II cells cultured in mixed 10:1 ratio in apical compartment, differentiated U937 (lilac) cells cultured at the basolateral compartment B) Type I/II cells cultured as a layers in a 10:1 ratio in apical compartment, differentiated U937 cells cultured at the basolateral compartment (blue), C) Type I cells cultured in the apical compartment and differentiated U937 cells were seeded on the underside of Transwell® inserts (green). […] A total of 5000 events were acquired on the flow cytometer.
The test system of data set [7] is U937 cells. Kind of data set: CD marker expression in PMA treated U937 cells (flow cytometry). The class given is cell-based, human. As for the experimental part: Human monocytic U937 cells derived from pleural effusion were seeded at 5×10^5 cells/mL in a 24 well plate or on the underside of a culture insert with 3.25×10^5 cells per well with 100 nM phorbol 12-myristate 13-acetate (PMA) (dissolved in DMSO; <1% v/v) in complete RPMI medium (10% v/v FBS, 1% v/v penicillin-streptomycin, 2 mM L-glutamine). Cells were incubated for 72 h at 37° C., 5% v/v CO2 in a humidified incubator to differentiate the cells to mature macrophages. Following PMA incubation, media was replaced with fresh CCM and incubated for a further 24 h rest period. After the 24 h rest phase, U937/MØ were ready for co-culture assembly. U937/MØ cells were prepared in line with when epithelial cells were ready, i.e. day 5 for A549 and day 10 for hAELVi cells.
FIG. 3 illustrates the expression profiles of selected CD markers in PMA treated U937 cells and primary alveolar macrophages (pAM). CD markers are: (A) CD 11a, (B) CD 11b, (C) CD 14, (D) CD 36 and (E) CD 206. U937 cells treated with (0 nM, 5 nM, and 100 nM) PMA for 24 h to-96 h followed by a 24 h rest period in fresh culture medium. Expression of CD markers was measured by flow cytometry and are presented as median fluorescent intensity (MFI±SEM). […]

The subject of data set [8] is U937 cells. The experiment in a line: Phagocytic activity of PMA treated U937 cells. Type of data set: cell-based, human. The following applies: 72 h, 100 nM PMA differentiation protocol. The text has this:
FIG. 4 illustrates the phagocytic activity of PMA treated U937 cells and primary alveolar macrophages (pAM). Percentage of phagocytic cells (mean±SEM) from PMA treated U937 cells. (n=9) for each time point for U937 cells and n=3 for primary cells.

Data set [9] has as its system U937 cells. Kind of data set: Morphology of U937 cells with exposure to PMA. The class given is cell-based, human. The following applies: 72 h, 100 nM PMA differentiation protocol. As for the experimental part:
FIG. 5 illustrates the morphology of U937 cells with exposure to PMA. U937 cells were cultured on chamber slides with medium supplemented with either 0 nM, 5 nM or 100 nM PMA and incubated for 24 h, 48 h, 72 h and 96 h followed by a 24 h recovery phase in fresh medium. Non-adherent PMA naive cells required centrifuge preparation. Primary human alveolar macrophages were harvested for morphological comparison. The cells were photographed at ×400 magnification with an inverted light microscope. (50 um scale bar).

Data set [10] relates to U937 cells. The experiment in a line: Long-term proliferation of PMA treated U937 cells (Guava ViaCount assay). The class given is cell-based, human. Particulars: 100 nM PMA. As for the experimental part: FIG. 6 illustrates the long-term proliferation of PMA treated U937 cells. […] Cell proliferation was assessed using Guava ViaCount assay via flow cytometry for 10,000 events. Results shown are representative for two repeated experiments performed in triplicate. Viable cells/mL are shown as mean±SD.

lipopolysaccharide [LPS]: the IL-8 secretion result is on record as “significantly increased” with co-culture models (all models); “significantly elevated” in the data set with co-culture models (combination type I and II epithelial models). Moreover, in data set [1], the “cell viability (LDH release)” value is “not adversely affected”. Moreover, the “ability to phagocytose (1.0 μm microspheres)” value in [2] is given as “retain their ability to phagocytose”. The “cytokine markers (signal intensity on array)” value in data set [3] is given as “elevated”. Also, the “barrier properties of the alveolar type I epithelial cells (TEER)” value in data set [4] is given as “not compromised”. Besides, in data set [5], the “macrophage activation (CD11 b expression, absence of CD36 expression)” value is listed as “likely to drive the macrophages to M1 type activation”.
As for `CCCCc1oc2ccccc2c1C(=O)c1cc(I)c(OCCN(CC)CC)c(I)c1` [amiodarone], the phospholipidosis accumulation entry in data set [6] was “detected”.
As to `CCCCCCCCCCCCCC(=O)O[C@@H]1[C@@H](C)[C@@]2(O)[C@@H](C=C(CO)C[C@]3(O)C(=O)C(C)=C[C@@H]23)[C@@H]2C(C)(C)[C@]12OC(C)=O` [PMA, phorbol-12-myristate-13-acetate], the “expression of CD36 and CD206 (M2 markers)” value in the data set with U937 cells [7] (PMA treated U937 cells) was “low”. Also, in the data set with U937 cells [7] (U937 cells, 100 nM PMA, 72 h, 24 h rest, compared with primary human alveolar macrophages), the “expression of cell surface markers selected to identify an alveolar macrophage phenotype (CD 11a, CD 11b, CD 14)” value is recorded as “optimally expressed”. Besides, the phagocytic functionality result with U937 cells [8] is given as “same phagocytic functionality of primary human alveolar macrophages”. The cell morphology entry with U937 cells [9] is reported as “most similar morphology to primary human alveolar macrophages”. Moreover, the cell proliferation result is reported as “reduced” in the data set with U937 cells [10] (24 h exposure) and “no” with U937 cells [10] (96 h exposure).
